Experimental data as given in patent US5770617A, “Terbenzimidazoles useful as antifungal agents” (Rutgers, The State University of New Jersey, priority 1997, dated 1998).
“Also recorded” adds a separate entry of the source.

Target: T1, calf thymus topoisomerase I (Bos taurus, UniProt F1MN93)
T1 construct: DNA topoisomerase I was purified from calf thymus gland as reported previously; from tissue; host or cells: calf thymus gland
T1 sequence (F1MN93 1-767): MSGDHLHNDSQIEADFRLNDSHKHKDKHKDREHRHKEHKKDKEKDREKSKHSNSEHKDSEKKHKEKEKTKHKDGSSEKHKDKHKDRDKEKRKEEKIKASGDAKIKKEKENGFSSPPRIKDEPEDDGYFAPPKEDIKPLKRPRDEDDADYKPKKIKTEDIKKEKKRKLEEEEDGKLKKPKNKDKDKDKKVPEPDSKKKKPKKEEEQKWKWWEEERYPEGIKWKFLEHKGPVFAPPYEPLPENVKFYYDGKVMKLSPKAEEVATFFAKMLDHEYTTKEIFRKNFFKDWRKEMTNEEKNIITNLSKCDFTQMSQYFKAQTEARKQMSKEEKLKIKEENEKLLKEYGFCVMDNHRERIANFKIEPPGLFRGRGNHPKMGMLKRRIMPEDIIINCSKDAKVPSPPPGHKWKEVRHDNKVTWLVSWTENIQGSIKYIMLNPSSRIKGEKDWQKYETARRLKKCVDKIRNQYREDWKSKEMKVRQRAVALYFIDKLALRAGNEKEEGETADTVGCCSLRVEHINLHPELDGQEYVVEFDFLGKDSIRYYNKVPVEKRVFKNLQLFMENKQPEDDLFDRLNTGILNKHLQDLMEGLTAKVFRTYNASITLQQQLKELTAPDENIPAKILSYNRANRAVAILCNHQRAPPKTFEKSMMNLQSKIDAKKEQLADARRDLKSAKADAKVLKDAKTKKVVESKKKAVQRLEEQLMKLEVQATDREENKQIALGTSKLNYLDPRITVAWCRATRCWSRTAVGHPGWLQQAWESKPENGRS
Test: Topoisomerase I-mediated DNA cleavage assay (calf thymus enzyme)
Format: biochemical
Details: concentration relative to Hoechst 33342 (arbitrarily 1) producing the same cleavage on plasmid DNA; calf thymus topoisomerase I
From the text: A. Topoisomerase I-Mediated DNA Cleavage Assays
DNA topoisomerase I was purified from calf thymus gland as reported previously by B. D. Halligan et al., J. Biol. Chem., 260, 2475 (1985).
Plasmid YEpG was also purified by the alkali lysis method followed by phenol deproteination and CsCl/ethidium isopycnic centrifugation as described by T. Maniatis et al., Molecular Cloning, A Laboratory Manual, Cold Spring Harbor Labs, N.Y. (1982) at pages 149-185. The end-labeling of the plasmid was accomplished as previously described by L. F. Liu et al., J. Biol. Chem., 258, 15365 (1983). The cleavage assays were performed as previously reported by A. Y. Chen et al., Cancer Res., 53, 1332 (1993). Human topoisomerase I was isolated as a recombinant fusion protein using a T7 expression system.

Topo I-mediated DNA cleavage (REC, Relative Effective Concentration) | Compound
1 | Clc1ccc2[nH]c(-c3ccc4[nH]c(-c5ccc6[nH]cnc6c5)nc4c3)nc2c1 [JSKIV-68, 5-Chloro-2-[2'-(benzimidazol-5"-yl)benzimidazol-5'-yl]-benzimidazole]
10 | Clc1ccc(-c2ccc3[nH]c(-c4ccc5[nH]c(-c6ccc7[nH]cnc7c6)nc5c4)nc3c2)cc1 [JSKIV-47, 5-(p-Chlorophenyl)-2-[2'-(benzimidazol-5"-yl)benzimidazol-5'-yl]-benzimidazole]
2 | c1cncc(-c2ccc3[nH]c(-c4ccc5[nH]c(-c6ccc7[nH]cnc7c6)nc5c4)nc3c2)c1 [Compound 15, 5-(3-Pyridyl)-2-[2'-(benzimidazol-5"-yl)benzimidazol-5'-yl]benzimidazole]
3.3 | c1ccc(-c2ccc3[nH]c(-c4ccc5[nH]c(-c6ccc7[nH]cnc7c6)nc5c4)nc3c2)nc1 [Compound 14, 5-(2-Pyridyl)-2-[2'-(benzimidazol-5"-yl)benzimidazol-5'-yl]benzimidazole]
2 | c1cc(-c2ccc3[nH]c(-c4ccc5[nH]c(-c6ccc7[nH]cnc7c6)nc5c4)nc3c2)ccn1 [Compound 16, 5-(4-Pyridyl)-2-[2'-(benzimidazol-5"-yl)benzimidazol-5'-yl]benzimidazole]
1000 | N#Cc1ccc2[nH]c(-c3ccc4[nH]cnc4c3)nc2c1 [Compound 19, 5-Cyano-2-(benzimidazol-5'-yl)benzimidazole]

Compound | Topo I-mediated DNA cleavage (REC, Relative Effective Concentration)
c1ccc2[nH]c(-c3ccc4[nH]c(-c5ccc6[nH]cnc6c5)nc4c3)nc2c1 [Compound 10, 2-[2'-(Benzimidazol-5"-yl)benzimidazol-5'-yl]benzimidazole] | 1.1

Target: T2, Aspergillus topoisomerase I (Aspergillus nidulans, UniProt Q5BGS7)
T2 construct: about 105 kDa by phosphate transfer
T2 sequence (Q5BGS7 1-871): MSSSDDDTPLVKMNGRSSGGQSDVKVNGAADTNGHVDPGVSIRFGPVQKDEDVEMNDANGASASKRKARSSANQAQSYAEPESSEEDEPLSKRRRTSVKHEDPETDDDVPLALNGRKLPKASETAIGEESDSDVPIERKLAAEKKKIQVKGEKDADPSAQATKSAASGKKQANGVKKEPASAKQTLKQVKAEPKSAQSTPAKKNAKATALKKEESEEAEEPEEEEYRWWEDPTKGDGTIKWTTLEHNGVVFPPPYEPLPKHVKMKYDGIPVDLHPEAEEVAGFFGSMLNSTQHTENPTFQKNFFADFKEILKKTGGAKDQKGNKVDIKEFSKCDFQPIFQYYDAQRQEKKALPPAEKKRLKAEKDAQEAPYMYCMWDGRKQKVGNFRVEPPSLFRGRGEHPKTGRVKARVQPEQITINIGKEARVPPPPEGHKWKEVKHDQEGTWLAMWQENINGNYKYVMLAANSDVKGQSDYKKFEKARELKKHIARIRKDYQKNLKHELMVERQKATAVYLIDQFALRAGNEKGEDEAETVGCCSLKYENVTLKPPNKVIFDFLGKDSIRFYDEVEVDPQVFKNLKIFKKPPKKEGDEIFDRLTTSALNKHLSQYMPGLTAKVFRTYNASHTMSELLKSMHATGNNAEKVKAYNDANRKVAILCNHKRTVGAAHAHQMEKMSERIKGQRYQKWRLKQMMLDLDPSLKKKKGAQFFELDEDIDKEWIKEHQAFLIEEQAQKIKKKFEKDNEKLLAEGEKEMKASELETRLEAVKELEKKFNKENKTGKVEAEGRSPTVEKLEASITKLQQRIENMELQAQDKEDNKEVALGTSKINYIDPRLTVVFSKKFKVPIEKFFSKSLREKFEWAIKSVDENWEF
Test: Topoisomerase I cleavage assay, Aspergillus enzyme
Format: biochemical
Details: DNA cleavage assay
Description: Two liters of YG medium (0.5% yeast extract and 2% glucose) were inoculated with approximately 5×10^8 conidia/ml. After 16 hours of growth at 37° C., the mycelia were collected, washed with Buffer I (50 mM Tris-HCl, pH 7.7, 1 mM EDTA, 1 mM EGTA, 10% glycerol, 1 mM phenylmethylsulfonyl fluoride and 1 mM 2-mercaptoethanol), and quickly chilled in liquid nitrogen. The frozen mycelia (approximately 20 grams) were ground to powder and resuspended in 300 ml of Buffer I. The lysate was centrifuged at 10K rpm in a Sorval HB3 Rotor for 15 minutes to remove cell debris. The supernatant was made 6% in polyethylene glycol (v/v) and 1M NaCl. After one hour on ice with gentle stirring, the solution was centrifuged at 14K rpm in a Sorvall Rotor for 30 minutes to remove nucleic acids.
Subsequent steps in purification were the same as described previously for purification of recombinant human DNA topoisomerase I (B. Gatto et al., Cancer Res., 56, 2795 (1996)). Briefly, the supernatant was chromatographed directly onto a hydroxyapatite Bio-gel HTP (BioRad Laboratories, Richmond, Calif.) column. Fractions containing relaxation activity were pooled, diluted and then loaded onto a BioRex70 column (BioRad Laboratories, Richmond, Calif.). The column was developed with a linear gradient from 0.2 to 1M KCl. The peak fractions were pooled and dialyzed overnight at 4° C. against 30 mM potassium phosphate, 50% glycerol (v/v), 0.5 mM EDTA, and 1 mM DTT. Recombinant human topoisomerase I was purified from Escherichia coli BL21 (DE3) harboring PET1B as described previously (Gatto et al., Cancer Res., 56, 2795 (1996)).
DNA topoisomerase I cleavage assays were performed as described by Y.-H. Hsiang et al., J. Biol. Chem., 260, 14873 (1985). YEpG DNA was linearized with BamHI and then 3 '-end-labeled with Klenow polymerase and α[-^32 P]dCTP. Following phenol extraction and ethanol precipitation, the labeled DNA was resuspended in 10 mM Tris, pH 8.0, and 1 mM EDTA. The DNA cleavage assay was done in a reaction mixture (20 μl) containing 40 mM Tris-HCl, pH 7.8, 100 mM KCl, 10 mM MgCl2, 0.5 mM dithiothreitol, 0.5 mM EDTA, 30 μg/ml bovine serum albumin, 20 ng of labeled YEpG DNA, and […] of Aspergillus or human topoisomerase I diluted to various extents. Following incubation at 23° C. for 15 minutes, the reactions were terminated by the addition of SDS (final concentration 1%) and proteinase K (final concentration 200 μg/ml). Proteinase K treatment continued at 37° C. for another 1 hour. The terminated reactions were either alkali-denatured and then loaded (alkaline loading) or loaded directedly in neutral loading buffer (neutral loading) onto a 1% agarose gel in neutral TPE electrophoresis solution. Gel drying and autoradiography were performed as described by Hsiang et al., cited above.

Compound | inhibition (poisoning) of Aspergillus topoisomerase I, in words
CCOc1ccc(-c2nc3ccc(-c4nc5cc(CCCN(C)C)ccc5[nH]4)cc3[nH]2)cc1 [compound 2 wherein n is 3] | selective sensitivity
COc1ccc(-c2nc3ccc(C(F)(F)F)cc3[nH]2)cc1 [QS/II/50] | None of the mono-benzimidazoles, including QS/II/50, QS/II/51, QS/II/59A, an QS/II/9, exhibited any inhibitory effect
COc1cc2cc3c4cc(OC)c(OC)cc4cc[n+]3c(C)c2cc1OC [coralyne] | completely resistant; also recorded: did not inhibit Aspergillus topoisomerase I to any significant extent
N=C(N)c1ccc(N=NNc2ccc(C(=N)N)cc2)cc1 [Berenil, berenil] | inactive

Target: T3, human topoisomerase I (Homo sapiens, UniProt P11387)
T3 construct: made in house; host or cells: Escherichia coli BL21 (DE3) harboring PET1B
T3 sequence (P11387 1-765): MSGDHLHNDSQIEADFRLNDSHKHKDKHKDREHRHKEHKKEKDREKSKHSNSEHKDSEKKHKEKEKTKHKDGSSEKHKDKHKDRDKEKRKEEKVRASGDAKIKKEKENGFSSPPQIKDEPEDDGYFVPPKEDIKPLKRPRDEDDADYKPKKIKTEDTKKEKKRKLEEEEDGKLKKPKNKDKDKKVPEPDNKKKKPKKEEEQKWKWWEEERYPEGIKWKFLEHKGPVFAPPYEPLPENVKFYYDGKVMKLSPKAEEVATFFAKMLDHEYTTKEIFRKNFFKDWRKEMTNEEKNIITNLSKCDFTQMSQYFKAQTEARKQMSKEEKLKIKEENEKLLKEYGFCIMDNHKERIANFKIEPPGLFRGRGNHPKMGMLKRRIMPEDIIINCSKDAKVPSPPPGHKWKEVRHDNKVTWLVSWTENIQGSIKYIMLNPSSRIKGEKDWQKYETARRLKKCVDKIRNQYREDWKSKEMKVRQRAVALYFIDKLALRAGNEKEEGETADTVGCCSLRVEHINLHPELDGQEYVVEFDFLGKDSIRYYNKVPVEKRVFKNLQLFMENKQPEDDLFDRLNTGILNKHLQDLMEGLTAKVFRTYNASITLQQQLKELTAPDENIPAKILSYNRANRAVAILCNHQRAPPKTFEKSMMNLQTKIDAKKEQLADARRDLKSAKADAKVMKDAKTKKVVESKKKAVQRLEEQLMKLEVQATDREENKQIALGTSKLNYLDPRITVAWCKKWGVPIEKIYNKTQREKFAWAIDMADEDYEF
Test: not given
Details: cited from earlier work

Compound | inhibition of human topoisomerase I, in words (known / previously disclosed)
COc1cc2cc3c4cc(OC)c(OC)cc4cc[n+]3c(C)c2cc1OC [coralyne] | highly potent inhibitors
N=C(N)c1ccc(N=NNc2ccc(C(=N)N)cc2)cc1 [Berenil, berenil] | inactive
